The values that follow come from patent publication US7511145B2 (Genelabs Technologies, Inc., priority 2003, dated 2009).

The target of this assay is T1, HCV-NS5b (Hepatitis C virus genotype 1b, UniProt Q9WMX2).
T1 construct: (His)6 (C); made in house; host or cells: XL-1 cells (E. coli), IPTG-inducible plasmid, nickel-NTA purification
As to the kind of experiment: HCV-NS5b enzyme assay (incorporation of radiolabeled UTP). It is filed as biochemical. The conditions noted are these: for inhibition at 33 µM: enzyme inhibition at compound concentration of 33 uM; for inhibition at 100 µM: read-out: % inh@100, enzyme inhibition at compound concentration of 100 uM. The source says:
The coding sequence of NS5b protein was cloned by PCR from pFKI389luc/NS3-3′/ET as described by Lohmann, V., et al. (1999) Science 285, 110-113 using the following primers: […]
The cloned fragment was missing the C terminus 21 amino acid residues. The cloned fragment was inserted into an IPTG-inducible expression plasmid that provided an epitope tag (His)6 at the carboxy terminus of the protein.
The recombinant enzyme was expressed in XL-1 cells and after induction of expression, the protein was purified using affinity chromatography on a nickel-NTA column. Storage condition was 10 mM Tris-HCl pH 7.5, 50 mM NaCl, 0.1 mM EDTA, 1 mM DTT, 20% glycerol at −20° C.
The polymerase activity was assayed by measuring incorporation of radiolabeled UTP into a RNA product using a biotinylated, heteropolymeric template, which included a portion of the HCV genome. Typically, the assay mixture (50 μL) contained 10 mM Tris-HCl (pH 7.5), 5 mM MgCl2, 0.2 mM EDTA, 10 mM KCl, 1 unit/μL RNAsin, 1 mM DTT, 10 μM each of NTP, including [^3H]-UTP, and 10 ng/μL heteropolymeric template. Test compounds were initially dissolved in 100% DMSO and further diluted in aqueous buffer containing 5% DMSO. Typically, compounds were tested at concentrations between 1 nM and 100 μM. Reactions were started with addition of enzyme and allowed to continue at 37° C. for 2 hours. Reactions were quenched with 8 μL of 100 mM EDTA and reaction mixtures (30 μL) were transferred to streptavidin-coated scintillation proximity microtiter plates (FlashPlates) and incubated at 4° C. overnight. Incorporation of radioactivity was determined by scintillation counting.
Shown in Table IX below are the values for enzyme inhibition measured at compound concentrations of 100 and 33 uM, (% inh@[…] and % inh@33, respectively). The percent inhibition values are calculated from the differential incorporation of radioactivity compared to a control reaction without compound: % inhibition=100−[(CountsINH−CountsBKG)/CountsCTRL−CountsBKG)×100 where CountsINH is the signal of the testwell with inhibitor, CountsBKG is the background signal and CountsCTRL is the signal of a testwell without inhibitor.

`O=C(N[C@@H](Cc1ccccc1)C(=O)O)c1ccc2c(c1)nc(-c1ccc3nc(-c4ccccc4)cnc3c1)n2C1CCCCC1` [Compound 246, 2-{[1-Cyclohexyl-2-(2-phenyl-quinoxalin-6-yl)-1H-benzoimidazole-5-carbonyl]-amino}-3-phenyl-propionic acid]: the inhibition at 33 µM was 95.9% and the inhibition at 100 µM was found to be 96.4%.
On the same counts, the results for `O=C(N[C@@H](Cc1c[nH]cn1)C(=O)O)c1ccc2c(c1)nc(-c1ccc3nc(-c4ccccc4)cnc3c1)n2C1CCCCC1` [Compound 247, 2-{[1-Cyclohexyl-2-(2-phenyl-quinoxalin-6-yl)-1H-benzoimidazole-5-carbonyl]-amino}-3-(1H-imidazol-4-yl)-propionic acid] are 66.8% and 94.2%.
In the case of `O=C(O)[C@@H]1C[C@@H](O)CN1C(=O)c1ccc2c(c1)nc(-c1ccc3nc(-c4ccccc4)cnc3c1)n2C1CCCCC1` [Compound 248, 1-[1-Cyclohexyl-2-(2-phenyl-quinoxalin-6-yl)-1H-benzoimidazole-5-carbonyl]-4-hydroxy-pyrrolidine-2-carboxylic acid], the inhibition at 33 µM amounted to 47.4% and the inhibition at 100 µM came out at 86.8%.
For `CC[C@H](C)[C@H](NC(=O)c1ccc2c(c1)nc(-c1ccc3nc(-c4ccccc4)cnc3c1)n2C1CCCCC1)C(=O)O` [Compound 249, 2-{[1-Cyclohexyl-2-(2-phenyl-quinoxalin-6-yl)-1H-benzoimidazole-5-carbonyl]-amino}-3-methyl-pentanoic acid], the inhibition at 33 µM was 94.5% and the inhibition at 100 µM stood at 97.2%.
In the case of `c1ccc(-c2cnc3cc(-c4nc5cc(-c6nn[nH]n6)ccc5n4C4CCCCC4)ccc3n2)cc1` [Compound 258, 6-[1-cyclohexyl-5-(1H-tetrazol-5-yl)-1H-benzimidazol-2-yl]-2-phenylquinoxaline], the inhibition at 33 µM is 97% and the inhibition at 100 µM was 98%.
As for `O=C(c1ccc(-c2ccc(Cl)cc2)c(-c2ccc3cc(-c4nc5cc(-c6nnn[nH]6)ccc5n4C4CCCCC4)ccc3n2)c1)N1CCCC1` [Compound 259, (4′-chloro-2-{6-[1-cyclohexyl-5-(1H-tetrazol-5-yl)-1H-benzoimidazol-2-yl]-quinolin-2-yl}-biphenyl-4-yl)-pyrrolidin-1-yl-methanone], the inhibition at 33 µM turned out to be 99.7% and the inhibition at 100 µM was found to be 99.4%.
As to `C[C@H](NC(=O)c1ccc2c(c1)nc(-c1ccc3nc(-c4ccccc4)cnc3c1)n2C1CCCCC1)C(=O)O` [Compound 310, 2-[(2-(2-phenyl-quinoxalin-6-yl)-1-cyclohexyl-1H-benzoimidazole-5-carbonyl)-amino]-propionic acid], the inhibition at 33 µM was determined as 83.2% and the inhibition at 100 µM worked out at 98.3%.
Take `O=C(O)CNC(=O)c1ccc2c(c1)nc(-c1ccc3nc(-c4ccccc4)cnc3c1)n2C1CCCCC1` [Compound 311, {[1-Cyclohexyl-2-(2-phenyl-quinoxalin-6-yl)-1H-benzoimidazole-5-carbonyl]-amino}-acetic acid]: the inhibition at 33 µM worked out at 83% and the inhibition at 100 µM amounted to 93.3%.
Consider `O=C(O)c1ccc2c(c1)nc(-c1ccc3cc(-c4ccccc4)cnc3c1)n2C1CCCCC1` [Compound 351, 1-cyclohexyl-2-(3-phenyl-quinolin-7-yl)-1H-benzoimidazole-5-carboxylic acid], for which the inhibition at 33 µM was 94.9% and the inhibition at 100 µM worked out at 98.1%.
Taken in the same sequence, the figures for `O=C(O)c1ccc2c(c1)nc(-c1ccc3nc(-c4ccccc4Br)ccc3c1)n2C1CCCCC1` [Compound 352, 2-[2-(2-bromo-phenyl)-quinolin-6-yl]-1-cyclohexyl-1H-benzoimidazole-5-carboxylic acid] were 94.2% and 98.8%.
Take `O=C(O)c1ccc2[nH]c(-c3ccc4nc(-c5ccccc5-c5ccc(Cl)cc5)ccc4c3)nc2c1` [Compound 353, 2-[2-(4′-Chloro-biphen-2-yl)-quinolin-6-yl]-1H-benzoimidazole-5-carboxylic acid]: the inhibition at 33 µM came out at 67.3% and the inhibition at 100 µM amounted to 67.5%.
Consider `O=C(O)c1ccc2c(c1)nc(-c1ccc3nc(-c4cc(Br)ccc4O)ccc3c1)n2C1CCCCC1` [Compound 354, 2-[2-(5-Bromo-2-hydroxy-phenyl)-quinolin-6-yl]-1-cyclohexyl-1H-benzoimidazole-5-carboxylic acid], for which the inhibition at 33 µM worked out at 98% and the inhibition at 100 µM came out at 101%.
Regarding `O=C(O)c1ccc2c(c1)nc(-c1ccc3nc(-c4cccnc4)ccc3c1)n2C1CCCCC1` [Compound 355, 1-cyclohexyl-2-(2-pyridin-3-yl-quinolin-6-yl)-1H-benzoimidazole-5-carboxylic acid], the inhibition at 33 µM was determined as 72.3% and the inhibition at 100 µM is 89.3%.
For `COc1ccc(-c2ccc(Cl)cc2)c(-c2ccc3cc(-c4nc5cc(C(=O)O)ccc5n4C4CCCCC4)ccc3n2)c1` [Compound 356, 2-[2-(4′-Chloro-4-methoxy-biphen-2-yl)-quinolin-6-yl]-1-cyclohexyl-1H-benzoimidazole-5-carboxylic acid], the inhibition at 33 µM was found to be 101% and the inhibition at 100 µM turned out to be 100%.
Regarding `O=C(O)c1ccc2c(c1)nc(-c1ccc3nc(-c4cccc5ccccc45)ccc3c1)n2C1CCCCC1` [Compound 357, 1-cyclohexyl-2-(2-naphthalen-1-yl-quinolin-6-yl)-1H-benzoimidazole-5-carboxylic acid], the inhibition at 33 µM was 98.8% and the inhibition at 100 µM stood at 101%.
Taken in the same sequence, the figures for `Nc1ccc(-c2ccc3cc(-c4nc5cc(C(=O)O)ccc5n4C4CCCCC4)ccc3n2)cc1` [Compound 358, 2-[2-(4-amino-phenyl)-quinolin-6-yl]-1-cyclohexyl-1H-benzoimidazole-5-carboxylic acid] were 85.1% and 95.3%.
Taken in the same sequence, the figures for `O=C(O)COc1cccc(-c2ccc3cc(-c4nc5cc(C(=O)O)ccc5n4C4CCCCC4)ccc3n2)c1` [Compound 359, 2-[2-(3-Carboxymethoxy-phenyl)-quinolin-6-yl]-1-cyclohexyl-1H-benzoimidazole-5-carboxylic acid] were 97.3% and 99.6%.
As for `O=C(O)c1ccc2c(c1)nc(-c1ccc3nc(-c4cc(OCC(=O)N5CCCC5)ccc4-c4ccccc4)ccc3c1)n2C1CCCCC1` [Compound 360, 1-cyclohexyl-2-{2-[4-(2-oxo-2-pyrrolidin-1-yl-ethoxy)-biphen-2-yl]-quinolin-6-yl}-1H-benzoimidazole-5-carboxylic acid], the inhibition at 33 µM is 97.6% and the inhibition at 100 µM is 97.9%.
With `NC(=O)CNC(=O)c1ccc(-c2ccc(Cl)cc2)c(-c2ccc3cc(-c4nc5cc(C(=O)O)ccc5n4C4CCCCC4)ccc3n2)c1` [Compound 361, 2-{2-[4-(Carbamoylmethyl-carbamoyl)-4′-chloro-biphen-2-yl]-quinolin-6-yl}-1-cyclohexyl-1H-benzoimidazole-5-carboxylic acid], the inhibition at 33 µM stood at 100% and the inhibition at 100 µM came to 98.7%.
Turning to `CNC(=O)c1ccc(-c2ccccc2)c(-c2ccc3cc(-c4nc5cc(C(=O)O)ccc5n4C4CCCCC4)ccc3n2)c1` [Compound 362, 1-cyclohexyl-2-[2-(4-methylcarbamoyl-biphen-2-yl)-quinolin-6-yl]-1H-benzoimidazole-5-carboxylic acid], the inhibition at 33 µM came to 101% and the inhibition at 100 µM came to 98.4%.
Consider `Nc1c(Cl)cc(-c2ccc3cc(-c4nc5cc(C(=O)O)ccc5n4C4CCCCC4)ccc3n2)cc1Cl` [Compound 363, 2-[2-(4-amino-3,5-dichloro-phenyl)-quinolin-6-yl]-1-cyclohexyl-1H-benzoimidazole-5-carboxylic acid], for which the inhibition at 33 µM was 98.4% and the inhibition at 100 µM came to 101%.
For `O=C(O)c1ccc2c(c1)nc(-c1ccc3nc(-c4ccc(O)cc4O)ccc3c1)n2C1CCCCC1` [Compound 364, 1-cyclohexyl-2-[2-(2,4-dihydroxy-phenyl)-quinolin-6-yl]-1H-benzoimidazole-5-carboxylic acid], the inhibition at 33 µM worked out at 98.6% and the inhibition at 100 µM came out at 101%.
Taken in the same sequence, the figures for `COc1ccc(-c2ccc(C#N)cc2)c(-c2ccc3cc(-c4nc5cc(C(=O)O)ccc5n4C4CCCCC4)ccc3n2)c1` [Compound 365, 2-[2-(4′-cyano-4-methoxy-biphen-2-yl)-quinolin-6-yl]-1-cyclohexyl-1H-benzoimidazole-5-carboxylic acid] were 102% and 103%.
